These results are taken from US12473283B2, “Compounds and their use” (Debiopharm International S.A., priority 2019, dated 2025).

Converted amounts (≈) assume the structure as drawn. Where two headings read alike, the source gives them in different places.

Experiment [1] addresses FabI enzyme from Acinetobacter baumannii (Acinetobacter baumannii, UniProt D0CAD5). Description: Inhibition of FabI enzyme, rate of NADH consumption. The experiment is classed as biochemical. Here is the method:
Inhibition of FabI enzyme from Acinetobacter baumannii and Escherichia coli was tested by measuring the rate of NADH consumption (Δabsorbance at 340 nm/min) at 30° C. in 96-well plate format using an automated plate reader in the presence or absence of the test compounds. The assay mixture contained 100 mM Tris-HCl, pH 7.25 (A. baumannii) or 7.5 (E. coli), 100 mM ammonium acetate, 0.02% (A. baumannii) or 0.05% (E. coli) Pluronic F-68, 25 μM crotonyl ACP, 50 μM NADH, 25 pM (A. baumannii) or 50 pM (E. coli) recombinant FabI protein, and 7.5% DMSO. Test compounds were added at concentrations ranging from 0.17 to 10,000 nM in a final well volume of 100 μl. This dose-response inhibitory assay was performed using a 10-point, serial dilution series for each test compound. IC50 values for each test compound were assigned from logistical sigmoid curve-fitting of the inhibition dose response curves.

Another experiment concerns S. aureus ATCC 29213. Description: Broth microdilution MIC assay. The experiment is classed as cell-based. Conditions: Staphylococcus aureus, ATCC29213; CA-MHB, 35° C., 20 hours. Here is the method:
(§1) The antibacterial activity of FabI inhibitors against select Gram-negative and Gram-positive bacterial species including susceptible and multi-drug resistant A. baumannii, E. coli, K. pneumoniae and S. aureus was tested using the broth microdilution Minimal Inhibitory Concentration (MIC) assay following CLSI guidelines for insoluble compounds. Test articles were serially diluted 2-fold in 100% dimethyl sulfoxide (DMSO) and then diluted 100-fold into cation adjusted Mueller-Hinton broth (CA-MHB) to achieve a 10-point test concentration range in 1% DMSO. Final compound concentrations were 0.016-8 μg/ml for S. aureus or 0.06-32 μg/ml for the Gram-negative species. MIC test plates were then prepared by transferring 100 μl of the final assay medium (test article in CA-MHB, 1% DMSO) into the appropriate wells of a sterile, low binding 96-well polystyrene plate. Direct colony suspension inoculums of the test strains were freshly prepared per CLSI guidelines, and the appropriate test wells were inoculated to achieve a final bacterial cell density of 5×10^5 CFU/ml. Growth control (no test article) and negative control (no bacterial inoculum) wells were also included. Exposure to light was minimized during all stages of assay preparation. […] Bacterial growth was then determined by measuring the optical density at 600 nm (OD600) using a SpectraMax Plus plate-reader spectrophotometer.
A general note: Broth dilution looks for growth in wells or tubes with falling amounts of substance.

Experiment [2] has as its system A. baumannii ATCC BAA1605. In words: Broth microdilution MIC assay. The experiment is classed as cell-based. Particulars: Acinetobacter baumannii, ATCCBAA1605; CA-MHB, 35° C., 20 hours. Here is the method:
as §1

Another experiment relates to K. pneumoniae A6030827. Description: Broth microdilution MIC assay. Conditions: Klebsiella pneumoniae, CA-MHB, 35° C., 20 hours. The experiment is classed as cell-based. Here is the method: as §1
The subject of the next experiment is E. coli AG100. Description: Broth microdilution MIC assay. Particulars: Escherichia coli, CA-MHB, 35° C., 20 hours. The experiment is classed as cell-based. Here is the method:
as §1

For experiment [3], the system named is Acinetobacter baumannii ATCC 17978. In words: Mouse thigh infection model. The experiment is classed as in vivo, BALB/c mice. Conditions: 3 mg/kg q12h SC. Here is the method:
(§2) Groups of 5 female specific-pathogen-free BALB/c mice weighing 18±2 g were used. In the 24 hr model (bacterial counts determined 24 hr after treatment start), mice were rendered neutropenic with cyclophosphamide intraperitoneal (IP) administration conducted at Days −4 (150 mg/kg), and day −1 (100 mg/kg). In the 72 hr model (bacterial counts determined 72 hr after treatment start), animals were rendered persistently neutropenic for the duration of the infection period with cyclophosphamide intraperitoneal (IP) administration conducted at Days −4 (150 mg/kg), −1 (100 mg/kg) and +1 (100 mg/kg). Persistent neutropenia is required to prevent pathogen clearance from thigh tissue in the 74 hr model. Nutritional supplementation (diet gel) plus saline SC injections were provided daily to help animals tolerate the cyclophosphamide treatment.
On day 0, animals were inoculated intramuscularly (0.1 ml/thigh) with a 1.67×10^4 inoculum count of Acinetobacter baumannii ATCC 17978. Vehicle control (40% Captisol), positive control (tigecycline) or test substances were then administered 2 hr post infection by the subcutaneous (SC) route of administration. Each dosing group consisted of 5 female mice. The MICs of the compounds against the test strain were 8 μg/ml, 2 μg/ml and […] for compound 201, compound 71 and compound 200, respectively. At 26 or 74 hours after inoculation (24 or 72 hr after treatment initiation), animals were euthanized with CO2 asphyxiation and the thigh tissue harvested from each of the test animals. The tissues were homogenized in 3 mL of PBS, pH 7.4 with a homogenizer. Homogenates, 0.1 mL, were used for serial 10-fold dilutions and plated onto NB agar for colony counts. Efficacy is calculated as the change in log CFU/g thigh vs. the time 0 (treatment initiation) control.

A further experiment concerns A. baumannil ATCC 17978. Description: Mouse lung infection model. The experiment is classed as in vivo, BALB/c mice. Conditions: 3 mg/kg q12h SC. As to the method:
as §2, with “lung” for “thigh”
On day 0, animals were anesthetized with etomidate-lipuro emulsion (20 mg/10 mL; 20 mg/kg dose, IV) and then inoculated intranasally with an A. baumannil ATCC 17978 suspension, 1.36×10^5 CFU/mouse, 0.02 mL/mouse. Vehicle control (40% Captisol), positive control (tigecycline) or test substances were then administered 2 hr post infection by the subcutaneous (SC) route of administration. Each dosing group consisted of 5 female mice. The MICs of the compounds against the test strain were 8 μg/ml and 0.5 μg/ml for compound 201 and compound 200, respectively. At 26 or 74 hours after inoculation (24 or 72 hr after treatment initiation), animals were euthanized with CO2 asphyxiation and the lung tissue harvested from each of the test animals. The tissues were homogenized in 1 ml of PBS, pH 7.4 with a homogenizer. Homogenates, 0.1 mL, were used for serial 10-fold dilutions and plated onto MacConkey II agar for colony counts. Efficacy is calculated as the change in log CFU/g […] vs. the time 0 (treatment initiation) control.

Setting [4] is: recombinant FabI, 30° C., pH 7.25, read-out: A. baumannii Fabl IC50.
[5] abbreviates: total daily dose 6 mg/kg, 24 hr treatment.
Where [6] appears, read: total daily dose 6 mg/kg, 72 hr treatment.

Chain of FabI enzyme from Acinetobacter baumannii (D0CAD5 entry or part of it): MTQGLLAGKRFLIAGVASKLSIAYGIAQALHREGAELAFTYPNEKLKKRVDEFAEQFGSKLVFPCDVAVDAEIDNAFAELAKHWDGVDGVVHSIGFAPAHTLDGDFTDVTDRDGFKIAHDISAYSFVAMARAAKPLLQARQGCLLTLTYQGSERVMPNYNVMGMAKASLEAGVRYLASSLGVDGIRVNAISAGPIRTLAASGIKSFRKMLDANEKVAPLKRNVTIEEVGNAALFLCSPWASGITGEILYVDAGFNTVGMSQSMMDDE

For the compound `Cc1c(CN(C)C(=O)/C=C/c2cnc3c(c2)CC[C@H](N)C(=O)N3)oc2c(Cl)cccc12.Cl` (single isomer, unassigned) [Compound 98, hydrochloride], the half-maximal inhibitory concentration (IC50) (commonly the concentration needed to halve the response being measured) in experiment [1] was less than 10 nM.
Regarding `Cc1c(CN(C)C(=O)/C=C/c2cnc3c(c2)CC[C@H](N)C(=O)N3)oc2c(Cl)cccc12.Cl` (single isomer, unassigned) [Compound 98], the MIC (against S. aureus ATCC 29213; in experiment [2]; against K. pneumoniae A6030827; with E. coli AG100) was not above 4 µg/mL throughout.
On to `Cc1c(CN(C)C(=O)/C=C/c2cnc3c(c2)CC[C@H](N)C(=O)N3)oc2c(F)cccc12.Cl` (single isomer, unassigned) [Compound 107, hydrochloride], for which the 50% inhibitory concentration (IC50) in experiment [1] was less than 10 nM.
`Cc1c(CN(C)C(=O)/C=C/c2cnc3c(c2)CC[C@H](N)C(=O)N3)oc2c(F)cccc12.Cl` (single isomer, unassigned) [Compound 107]: the MIC (against S. aureus ATCC 29213; in experiment [2]; with K. pneumoniae A6030827; against E. coli AG100) was not above 4 µg/mL throughout.
Turning to `Cc1c(CN(C)C(=O)/C=C/c2cnc3c(c2)CC[C@H](N)C(=O)N3)sc2ccccc12.Cl` (single isomer, unassigned) [Compound 119], the MIC (with S. aureus ATCC 29213; in experiment [2]; in the experiment with K. pneumoniae A6030827; with E. coli AG100) was not above 4 µg/mL in each case.
Compound `Cc1c(CN(C)C(=O)/C=C/c2cnc3c(c2)CC[C@H](N)C(=O)N3)oc2cccc(F)c12.Cl` (single isomer, unassigned) [Compound 130, hydrochloride] came in with a concentration for half-maximal inhibition (IC50) in experiment [1] of less than 10 nM.
Take `Cc1c(CN(C)C(=O)/C=C/c2cnc3c(c2)CC[C@H](N)C(=O)N3)sc2c(F)cccc12.Cl` (single isomer, unassigned) [Compound 140, hydrochloride]: the IC50 in experiment [1] was less than 10 nM.
Take `Cc1c(CN(C)C(=O)/C=C/c2cnc3c(c2)CC[C@H](N)C(=O)N3)oc2ccc(Oc3cccnc3)cc12.Cl` (single isomer, unassigned) [Compound 151, hydrochloride]: the IC50 in experiment [1] is less than 10 nM.
For `Cc1c(CN(C)C(=O)/C=C/c2cnc3c(c2)CC[C@H](N)C(=O)N3)oc2ccc(Oc3cccnc3)cc12.Cl` (single isomer, unassigned) [Compound 151], the MIC in the experiment on S. aureus ATCC 29213, in the experiment on K. pneumoniae A6030827 and in the experiment with E. coli AG100 was not above 4 µg/mL in each case.
With `Cc1c(CN(C)C(=O)/C=C/c2cnc3c(c2)CC[C@H](N)C(=O)N3)oc2cccc(CNc3cccnc3)c12.Cl.Cl` (single isomer, unassigned) [Compound 167, dihydrochloride], in experiment [1], the IC50 is less than 10 nM.
With `CC(=O)NC1CNc2cc(/C=C/C(=O)N(C)Cc3oc4ccccc4c3C)cnc2NC1=O` (stereo not shown) [Compound 42, (E)-3-(3-acetamido-4-oxo-2,3,4,5-tetrahydro-1H-pyrido[2,3-b][1,4]diazepin-8-yl)-N-methyl-N-((3-methylbenzofuran-2-yl)methyl)acrylamide], the MIC (with S. aureus ATCC 29213; in experiment [2]) was not above 4 µg/mL throughout.
On to `Cc1c(CN(C)C(=O)/C=C/c2cnc3c(c2)N[C@H](C)[C@H](N)C(=O)N3)oc2ccccc12` [Compound 52, (E)-3-((2R,3S)-3-amino-2-methyl-4-oxo-2,3,4,5-tetrahydro-1H-pyrido[2,3-b][1,4]diazepin-8-yl)-N-methyl-N-((3-methylbenzofuran-2-yl)methyl)acrylamide], for which the half-maximal inhibitory concentration (IC50) in experiment [1] (setting [4]) was less than 10 nM. In addition, the minimal inhibitory concentration (MIC) (against S. aureus ATCC 29213; in experiment [2]; against E. coli AG100) was not above 4 µg/mL throughout.
For the compound `Cc1oc2c(N)cccc2c1CN(C)C(=O)/C=C/c1cnc2c(c1)N[C@H](C)[C@H](N)C(=O)N2` [Compound 62, (E)-3-((2R,3S)-3-amino-2-methyl-4-oxo-2,3,4,5-tetrahydro-1H-pyrido[2,3-b][1,4]diazepin-8-yl)-N-((7-amino-2-methylbenzofuran-3-yl)methyl)-N-methylacrylamide], the 50% inhibitory concentration (IC50) in experiment [1] (setting [4]) is less than 10 nM. Besides, the MIC (against S. aureus ATCC 29213; in experiment [2]; against E. coli AG100) was not above 4 µg/mL throughout.
With `Cc1c(CN(C)C(=O)/C=C/c2cnc3c(c2)CCC(N2CCN(S(C)(=O)=O)CC2)C(=O)N3)oc2ccccc12` (stereo not shown) [Compound 187, (E)-N-methyl-N-((3-methylbenzofuran-2-yl)methyl)-3-(7-(4-(methylsulfonyl)piperazin-1-yl)-8-oxo-6,7,8,9-tetrahydro-5H-pyrido[2,3-b]azepin-3-yl)acrylamide], the concentration for half-maximal inhibition (IC50) in experiment [1] (setting [4]) was less than 10 nM. In addition, the results for the MIC (against S. aureus ATCC 29213; in experiment [2]; against E. coli AG100) were not above 4 µg/mL, not above 4 µg/mL and 16 µg/mL (≈ 29 µM), respectively.
As to `CN(C)c1cc(NC(=O)CNC(C)(C)C)c(O)c2c1C[C@H]1C[C@H]3[C@H](N(C)C)C(O)=C(C(N)=O)C(=O)[C@@]3(O)C(O)=C1C2=O` [Tigecycline, reference compound], the “Mean Change log CFU/g thigh 24 hr” value in experiment [3] (24 hr, vs. time 0 control) is listed as −2.48 log CFU/g thigh. Further, the “Mean Change log CFU/g thigh 72 hr” value in experiment [3] (72 hr, vs. time 0 control) is recorded as −3.48 log CFU/g thigh. The “Mean Log CFU/g thigh 24 hr” value in experiment [3] (setting [5]) was found to be 2.37 log CFU/g thigh. Besides, the “Mean Log CFU/g thigh 72 hr” value in experiment [3] (setting [6]) worked out at 1.36 log CFU/g thigh. Further, in the experiment with A. baumannil ATCC 17978 (24 hr, vs. time 0 control), the “Mean change log CFU/g lung 24 hr” value is on record as −3.44 log CFU/g lung. In the experiment with A. baumannil ATCC 17978 (72 hr, vs. time 0 control), the “Mean change log CFU/g lung 72 hr” value is listed as −4.74 log CFU/g lung. The “Mean Log CFU/g lung 24 hr” value with A. baumannil ATCC 17978 (setting [5]) worked out at 2.87 log CFU/g lung. The “Mean Log CFU/g lung 72 hr” value in the experiment on A. baumannil ATCC 17978 (setting [6]) worked out at 1.57 log CFU/g lung.
